Twelve compounds from patent US20230131899A1, “INHIBITORS OF MICROBIALLY INDUCED AMYLOID” (Axial Therapeutics, Inc., priority 2020, published 2023) can be followed below.

In one assay the target is T1, human α-synuclein (Homo sapiens, UniProt P37840).
T1 construct: the full-length gene for untagged human α-synuclein was inserted; made in house; host or cells: E. coli BL21(DE3), plasmid derived from pT7 or pET11a
Put plainly: Cell-free Thioflavin T assay of α-synuclein aggregation (αSyn ThT Assay). The class given is biochemical. As to conditions: αSyn 50 μM, compounds at 100 μM. In outline: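 Untagged full-length human α-synuclein from E. coli, 50 μM, with 20-40 μM ThT, 1% DMSO, compound at 20-100 μM and a glass bead, 37° C. with shaking. Fluorescence (ex 438/em 495 nm) read hourly to 73 h. Compound-only background subtracted and values normalised to vehicle at 36-72 h or final timepoint, giving % inhibition.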

For assay [1], the system named is CsgA expression in E. coli MC4100. As to the kind of experiment: Monocolonized Mouse Model: csgA expression in fecal pellets by qRT-PCR. Particulars: 30 mg/kg, day five of treatment, relative to mice treated with vehicle alone (FIGS. 4A-B). (Real-time PCR tracks product formation cycle by cycle.)
Assay [2] deals with CsgA expression in WT E. coli. Put plainly: qRT-PCR of CsgA expression in WT E. coli. The class given is cell-based. As to conditions: previously observed.
Where [3] appears, read: mean % inhibition of αSyn aggregation relative to DMSO control, read-out: αSyn ThT Assay % Inhibition.
Setting [4] is: class symbol, read-out: αSyn ThT Assay % Inhibition (activity range).

Each structure is given as a SMILES string. Read-outs that look alike come from different tables or passages of the source. Where only a bound is given, the exact number is not on record here.

`CCCN1CC(C(=O)O)n2c(c(-c3cccc(C(F)(F)F)c3)c(Cc3cccc4ccccc34)cc2=O)S1(=O)=O` (racemic) [Compound 016, 8-(naphthalen-1-ylmethyl)-6-oxo-2-propyl-9-(3-(trifluoromethyl)phenyl)-3,4-dihydro-2H,6H-pyrido[1,2-e][1,2,5]thiadiazine-4-carboxylic acid 1,1-dioxide]: the inhibition at 100 µM on human α-synuclein (setting [3]) was 68%; on human α-synuclein (setting [4]), > 60%. Also, in assay [1], the “csgA expression in E. coli MC4100 monocolonized mice” value was “reduction of csgA expression”.

For `Nc1c(Cc2cccc3ccccc23)c(-c2cccc(C(F)(F)F)c2)c2n(c1=O)C(C(=O)O)CS2` (racemic) [Compound 020, 6-amino-7-(naphthalen-1-ylmethyl)-5-oxo-8-(3-(trifluoromethyl)phenyl)-2,3-dihydro-5H-thiazolo[3,2-a]pyridine-3-carboxylic acid], the “CsgA expression via qRT-PCR” value in assay [2] is reported as “inhibit CsgA expression”. For the same compound, the inhibition at 100 µM was 53% on human α-synuclein (setting [3]) and 31 to 60% on human α-synuclein (setting [4]).

As for `CN(C)Cc1c(Cc2cccc3ccccc23)c(-c2cccc(C(F)(F)F)c2)c2n(c1=O)C(C(=O)O)CS2` (centres unmarked) [Compound 075, 6-((dimethylamino)methyl)-7-(naphthalen-1-ylmethyl)-5-oxo-8-(3-(trifluoromethyl)phenyl)-2,3-dihydro-5H-thiazolo[3,2-a]pyridine-3-carboxylic acid], the inhibition at 100 µM on human α-synuclein (setting [3]) was 2%; at human α-synuclein (setting [4]), -10 to 10%.

For `CN1CC(C(=O)O)n2c(c(-c3cccc(C(F)(F)F)c3)c(Cc3cccc4ccccc34)c(C(N)=O)c2=O)S1(=O)=O` (centres unmarked) [Compound 109, 7-carbamoyl-2-methyl-8-(naphthalen-1-ylmethyl)-6-oxo-9-(3-(trifluoromethyl)phenyl)-3,4-dihydro-2H,6H-pyrido[1,2-e][1,2,5]thiadiazine-4-carboxylic acid 1,1-dioxide], the inhibition at 100 µM on human α-synuclein (setting [3]) is 99%; at human α-synuclein (setting [4]) it was > 60%.

For `CCc1c(Cc2cccc3ccccc23)c(-c2cccc(C(F)(F)F)c2)c2n(c1=O)C(C(=O)O)CN(C1CCCCC1)S2(=O)=O` (centres unmarked) [Compound 116, 2-cyclohexyl-7-ethyl-8-(naphthalen-1-ylmethyl)-6-oxo-9-(3-(trifluoromethyl)phenyl)-3,4-dihydro-2H,6H-pyrido[1,2-e][1,2,5]thiadiazine-4-carboxylic acid 1,1-dioxide], the inhibition at 100 µM on human α-synuclein (setting [3]) is 47%; on human α-synuclein (setting [4]), 31 to 60%.

`CN1CC(C(=O)O)n2c1c(-c1cccc(C(F)(F)F)c1)c(Cc1cccc3ccccc13)c(Br)c2=O` (centres unmarked) [Compound 119, 6-bromo-1-methyl-7-(naphthalen-1-ylmethyl)-5-oxo-8-(3-(trifluoromethyl)phenyl)-1,2,3,5-tetrahydroimidazo[1,2-a]pyridine-3-carboxylic acid]: the inhibition at 100 µM was 41% on human α-synuclein (setting [3]) and 31 to 60% on human α-synuclein (setting [4]).

On to `O=C(O)C1CN(CCCO)S(=O)(=O)c2c(-c3cccc(C(F)(F)F)c3)c(Cc3cccc4ccccc34)c(NC3CCCC3)c(=O)n21` (centres unmarked) [Compound 120, 7-(cyclopentylamino)-2-(3-hydroxypropyl)-8-(naphthalen-1-ylmethyl)-6-oxo-9-(3-(trifluoromethyl)phenyl)-3,4-dihydro-2H,6H-pyrido[1,2-e][1,2,5]thiadiazine-4-carboxylic acid 1,1-dioxide], for which the inhibition at 100 µM at human α-synuclein (setting [3]) was 40%; at human α-synuclein (setting [4]), 31 to 60%.

Regarding `O=C(O)C1CN(CCCCO)S(=O)(=O)c2c(-c3cccc(C(F)(F)F)c3)c(Cc3cccc4ccccc34)c(NC3CCCC3)c(=O)n21` (centres unmarked) [Compound 121, 7-(cyclopentylamino)-2-(4-hydroxybutyl)-8-(naphthalen-1-ylmethyl)-6-oxo-9-(3-(trifluoromethyl)phenyl)-3,4-dihydro-2H,6H-pyrido[1,2-e][1,2,5]thiadiazine-4-carboxylic acid 1,1-dioxide], the figures for the inhibition at 100 µM at human α-synuclein (setting [3]) and on human α-synuclein (setting [4]) were 27% and 11 to 30%, respectively.

Consider `O=C(O)C1CN(CCCCCO)S(=O)(=O)c2c(-c3cccc(C(F)(F)F)c3)c(Cc3cccc4ccccc34)c(NC3CCCC3)c(=O)n21` (centres unmarked) [Compound 122, 7-(cyclopentylamino)-2-(5-hydroxypentyl)-8-(naphthalen-1-ylmethyl)-6-oxo-9-(3-(trifluoromethyl)phenyl)-3,4-dihydro-2H,6H-pyrido[1,2-e][1,2,5]thiadiazine-4-carboxylic acid 1,1-dioxide], for which the inhibition at 100 µM on human α-synuclein (setting [3]) is 38%; on human α-synuclein (setting [4]), 31 to 60%.

Turning to `CC(C)N1CC(C(=O)O)n2c(c(-c3cccc(C(F)(F)F)c3)c(Cc3cccc4ccccc34)c(NC3CCCC3)c2=O)S1(=O)=O` (centres unmarked) [Compound 123, 7-(cyclopentylamino)-2-isopropyl-8-(naphthalen-1-ylmethyl)-6-oxo-9-(3-(trifluoromethyl)phenyl)-3,4-dihydro-2H,6H-pyrido[1,2-e][1,2,5]thiadiazine-4-carboxylic acid 1,1-dioxide], the inhibition at 100 µM was 76% on human α-synuclein (setting [3]) and > 60% on human α-synuclein (setting [4]).

As to `CCCN1CC(C(=O)O)n2c(c(-c3cccc(C(F)(F)F)c3)c(Cc3cccc4ccccc34)c(NC3CCCC3)c2=O)S1(=O)=O` (centres unmarked) [Compound 126, 7-(cyclopentylamino)-8-(naphthalen-1-ylmethyl)-6-oxo-2-propyl-9-(3-(trifluoromethyl)phenyl)-3,4-dihydro-2H,6H-pyrido[1,2-e][1,2,5]thiadiazine-4-carboxylic acid 1,1-dioxide], the values for the inhibition at 100 µM at human α-synuclein (setting [3]) and on human α-synuclein (setting [4]) were 32% and 31 to 60%, respectively.

Consider `CCCN1CC(C(=O)O)n2c(c(-c3cccc(C(F)(F)F)c3)c(Cc3cccc4ccccc34)c(NC3CCOCC3)c2=O)S1(=O)=O` (centres unmarked) [Compound 127, 8-(naphthalen-1-ylmethyl)-6-oxo-2-propyl-7-((tetrahydro-2H-pyran-4-yl)amino)-9-(3-(trifluoromethyl)phenyl)-3,4-dihydro-2H,6H-pyrido[1,2-e][1,2,5] thiadiazine-4-carboxylic acid 1,1-dioxide], for which the inhibition at 100 µM on human α-synuclein (setting [3]) was 67%; at human α-synuclein (setting [4]), > 60%.

The term inhibition denotes the relative decrease from the control value, in per cent.
